Tests used:
[1] = system: MS751 cells; assay: MTT cell proliferation assay, MS751 cells; assay type: cell-based, human; settings: approximately 64-72 hours incubation
Procedure: (§1) The MTT cell proliferation assay was used to study the cytotoxic properties of the compounds. The assay was performed according to the method described by Roche Molecular Biochemicals, with minor modifications. The assay is based on the cleavage of the tetrazolium salt, MTT, in the presence of an electron-coupling reagent. The water-insoluble formazan salt produced must be solubilized in an additional step. Cells grown in a 96-well tissue culture plate were incubated with the MTT solution for approximately 4 hours. After this incubation period, a water-insoluble formazan dye formed. After solubilization, the formazan dye was quantitated using a scanning multi-well spectrophotometer (ELISA reader). […] The cells were seeded at 5,000-10,000 cells in each well of 96-well plate in 100 μL of fresh culture medium and were allowed to attach overnight. The stock solutions of the compounds were diluted in 100 μL cell culture medium to obtain eight concentrations of each test compound, ranging from 1 nM to 30 μM. […] All optical densities were measured at 490 nm using a Vmax Kinetic Microplate Reader (Molecular Devices). In most cases, the assay was performed in duplicate and the results were presented as a mean percent inhibition to the negative control±SE. The following formula was used to calculate the percent of inhibition: Inhibition (%)=(1-(ODo/OD))×100.
(§2) The compounds were tested against MS751, Z138 and 3T3 cells. The MS751 cell line is derived from a metastasis to lymph node of human cervix from a patient diagnosed with squameous cell carcinoma of the cervix. The Z138 cell line is a mature B-cell acute lymphoblastic leukemia cell line derived from a patient with chronic lymphocytic leukemia. 3T3 cells are standard fibroblast cells; they were originally isolated from Swiss mouse embryo tissue.

[2] = system: Z138 cells; assay: MTT cell proliferation assay, Z138 cells; assay type: cell-based, human; settings: approximately 64-72 hours incubation
Procedure: as §1, §2

[3] = system: 3T3 cells; assay: MTT cell proliferation assay, 3T3 cells; assay type: cell-based, mouse
Procedure: as §1, §2

[4] = Plasma protein binding; assay type: in vitro ADME; settings: human plasma
[5] = system: Molt-4 T-ALL cancer xenograft; NCI-H520 lung cancer xenograft; assay: Xenograft models in mice (Molt-4 T-ALL in SCID mice; NCI-H520 lung cancer in nu/nu mice); assay type: in vivo, mouse; settings: Molt-4 xenograft 10 and 20 mg/kg PO BID; H520 xenograft 100 mg/kg PO BID
Procedure: In this study, the impact of the compound of Example 2 on tumor growth was tested using the Molt-4 T-ALL cancer xenograft model in SCID mice. MOLT 4 (CRL-1582) acute lymphoblastic leukemia cells were obtained from ATCC. These cells were grown in RPMI-1640 medium supplemented with 10% fetal bovine serum, 1% penicillin and streptomycin. Cells were sub-cultured by transferring floating cells to a new flask and trypsinizing adherent cells before subculturing at a ratio of 1:4. Molt-4 cells were harvested by centrifugation and counted using a hemocytometer. Cells were resuspended in PBS at a 5×10^7 cells per mL. Cells were placed on ice and mixed with an equal volume of Matrigel (BD Biosciences CB-40234). This mixture was kept on ice and injected into the left flank of mice in a volume of […], equivalent to 5×10^6 cells per mouse. Twenty-four (24) CB-17 SCID mice were inoculated subcutaneously in the left flank Molt-4 cells. Treatment was initiated when the tumors reached a mean volume of ˜135 mm^3. […] Animal weights and conditions were recorded daily, and tumors were measured on Mondays, Wednesdays and Fridays.
In this study, the impact of the compound of Example 2 on tumor growth was tested using the NCI-H520 lung cancer xenograft model in nu/nu mice. […] Animal weights and conditions were recorded daily, and tumors were measured on Mondays, Wednesdays and Fridays.

[6] = Mus musculus, NIH3T3, approximately 64-72 hours incubation
[7] = Homo sapiens, MS751, MS751 cells
[8] = Homo sapiens, Z-138, Z138 cells
[9] = approximately 64-72 hours incubation

For `CC1(F)CCN(C(=O)c2ccc(-c3cc(C(F)(F)F)c4oc(CNC(=O)/C=C/c5ccc(N)nc5)cc4c3)cc2)C1` (single isomer, unassigned) [Example X-3, (E)-3-(6-aminopyridin-3-yl)-N-((5-(4-(3-fluoro-3-methylpyrrolidine-1-carbonyl)phenyl)-7-(trifluoromethyl)benzofuran-2-yl)methyl)acrylamide], the IC50 ([1]; MS751 cells) was 0.4 µM, the IC50 ([2]; Z138 cells) was 0.4 µM and the IC50 [3, 6] was greater than 10 µM.
Work on `CC1(F)CCN(C(=O)c2ccc(-c3cc(-c4ccc(F)cc4)c4oc(CNC(=O)/C=C/c5ccc(N)nc5)cc4c3)cc2)C1` (racemic) [Example 1, (±)-(E)-3-(6-aminopyridin-3-yl)-N-((5-(4-(3-fluoro-3-methylpyrrolidine-1-carbonyl)phenyl)-7-(4-fluorophenyl)benzofuran-2-yl)methyl)acrylamide] yielded an IC50 [1, 7] of 0.03 µM, an IC50 [2, 8] of less than 0.005 µM and an IC50 [3, 6] of 1.26 µM.
In the case of `C[C@@]1(F)CCN(C(=O)c2ccc(-c3cc(-c4ccc(F)cc4)c4oc(CNC(=O)/C=C/c5ccc(N)nc5)cc4c3)cc2)C1` [Example 3, (R,E)-3-(6-aminopyridin-3-yl)-N-((5-(4-(3-fluoro-3-methylpyrrolidine-1-carbonyl)phenyl)-7-(4-fluorophenyl)benzofuran-2-yl)methyl)acrylamide], the IC50 [1, 7] is reported as 0.09 µM, the IC50 [2, 8] is reported as 0.02 µM and the IC50 [3, 6] is reported as greater than 10 µM.
`C[C@]1(F)CCN(C(=O)c2ccc(-c3cc(-c4ccc(F)cc4)c4oc(CNC(=O)/C=C/c5ccc(N)nc5)cc4c3)cc2)C1` [Example 2, (S,E)-3-(6-aminopyridin-3-yl)-N-((5-(4-(3-fluoro-3-methylpyrrolidine-1-carbonyl)phenyl)-7-(4-fluorophenyl)benzofuran-2-yl)methyl)acrylamide] showed an IC50 [1, 7] of 0.008 µM, an IC50 [2, 8] of less than 0.005 µM and an IC50 [3, 6] of 1.18 µM. The “Fraction of Bound” value [4] was 95.2% and the “efficacy in vivo (tumor growth)” value [5] was “demonstrated efficacy in vivo”.
`CC1(F)CCN(C(=O)c2ccc(-c3cc(C(F)(F)F)c4oc(CNC(=O)/C=C/c5ccc(N)nc5)cc4c3)cc2)C1` (single isomer, unassigned) [Example X-2, (E)-3-(6-aminopyridin-3-yl)-N-((5-(4-(3-fluoro-3-methylpyrrolidine-1-carbonyl)phenyl)-7-(trifluoromethyl)benzofuran-2-yl)methyl)acrylamide] showed an IC50 ([1]; MS751 cells) of 0.52 µM, an IC50 ([2]; Z138 cells) of 0.24 µM and an IC50 [3, 9] greater than 10 µM.
Compound `CC1(F)CCN(C(=O)c2ccc(-c3cc(C(F)(F)F)c4oc(CNC(=O)/C=C/c5ccc(N)nc5)cc4c3)cc2)C1` (single isomer, unassigned) [Example X-4, (E)-3-(6-aminopyridin-3-yl)-N-((5-(4-(3-fluoro-3-methylpyrrolidine-1-carbonyl)phenyl)-7-(trifluoromethyl)benzofuran-2-yl)methyl)acrylamide] has an IC50 ([1]; MS751 cells) of 2.1 µM, an IC50 ([2]; Z138 cells) of 1.5 µM and an IC50 [3, 9] greater than 10 µM.
Compound `Nc1ccc(/C=C/C(=O)NCc2cc3cc(-c4ccc(C(=O)N5CCC(F)(F)CC5)cc4)cc(-c4ccc(F)cc4)c3o2)cn1` [Example X-1, (E)-3-(6-aminopyridin-3-yl)-N-((5-(4-(4,4-difluoropiperidine-1-carbonyl)phenyl)-7-(4-fluorophenyl)benzofuran-2-yl)methyl)acrylamide] has an IC50 [1, 7] of 0.05 µM, an IC50 [2, 8] of 0.018 µM and an IC50 [3, 6] of 3.6 µM. The “Fraction of Bound” value [4] was 100%.

Reference: patent US10363247B2, “(S,E)-3-(6-aminopyridin-3-yl)-N-((5-(4-(3-fluoro-3-methylpyrrolidine-1-carbonyl)phenyl-7-(4-fluorophenyl)benzofuran-2-yl)methyl)acrylamide for the treatment of cancer” (Karyopharm Therapeutics Inc., priority 2015, dated 2019)
